According to patent publication US10010525B2, “Methods of inducing anesthesia” (The Regents of the University of California, priority 2012, dated 2018):
Like-named read-outs stand apart in the source and are kept apart here.

Tests used:
[1] = molecular target: T1, NMDA (NR1/NR2A) receptors (Rattus norvegicus, UniProt P35439+Q00959); assay: NMDA receptor two-electrode voltage clamp in oocytes at saturated drug concentration; assay type: cell-based; details: saturating aqueous concentration
T1 construct: expressed in transfected cells; host or cells: Xenopus laevis oocytes (RNA injection, 1:1)
Excerpt: (§1) GABAA (α1β2γ2s) or NMDA (NR1/NR2A) receptors were expressed in oocytes and studied using standard two-electrode voltage clamp techniques. Hydrocarbons from 14 different organic functional groups were studied at saturated concentrations, and compounds within each group differed only by the carbon number at the ω-position or within a saturated ring. An effect on GABAA or NMDA receptors was defined as a 10% or greater reversible current change from baseline that was statistically different from zero.
(§2) An ovary from tricaine-anesthetized Xenopus laevis frogs was surgically removed using a protocol approved by the Institutional Animal Care and Use Committee at the University of California, Davis. Following manual disruption of the ovarian lobule septae, the ovary was incubated in 0.2% Type I collagenase (Worthington Biochemical, Lakewood, N.J.) to defolliculate oocytes which were washed and stored in fresh and filtered modified Barth's solution composed of 88 mM NaCl, 1 mM KCl, 2.4 mM NaHCO3, 20 mM HEPES, 0.82 mM MgSO4, 0.33 mM Ca(NO3)2, 0.41 mM CaCl2, 5 mM sodium pyruvate, gentamycin, penicillin, streptomycin, and corrected to pH=7.4. All salts and antibiotics were A.C.S. grade (Fisher Scientific, Pittsburgh, Pa.).
(§3) Clones used were provided as a gift from Dr. R. A. Harris (University of Texas, Austin) and were sequenced and compared to references in the National Center for Biotechnology Information database to confirm the identity of each gene. GABAA receptors were expressed using clones for the human GABAA α1 and the rat GABAA β2 and γ2s subunits in pCIS-II vectors. […] In separate oocytes, glutamate receptors were expressed using rat NMDA NR1 clones in a pCDNA3 vector and rat NMDA NR2A clones in a Bluescript vector. RNA encoding each subunit was prepared using a commercial transcription kit (T7 mMessage mMachine, Ambion, Austin, Tex.) was mixed in a 1:1 ratio, and 1-10 ng of total RNA was injected into oocytes and studied 1-2 days later.
Briefly, baseline perfusion solutions were the same as for GABAA with the substitution of equimolar BaCl2 for calcium salts and the addition of 0.1 mM EGTA; this constituted barium frog Ringer's solution (BaFR). Agonist solutions for NMDA studies also contained 0.1 mM glutamate (E) and 0.01 mM glycine (G) to constitute a BaFREG solution.
The syringe pump and perfusion chamber apparatus as well as the clamp holding potential and baseline-agonist exposure protocols were identical to that described for the GABAA studies. The same test compounds, concentrations, and preparative methods were used in NMDA voltage clamp studies as in the GABAA voltage clamp studies (Table 2).
(§4) Modulating drug responses were calculated as the percent of the control (baseline) peak as follows: 100·ID/IB, where ID and IB were the peak currents measured during agonist+drug and agonist baseline perfusions, respectively. When present, direct receptor activation by a drug was similarly calculated as a percent of the agonist response. […] A lack of receptor response (cut-off) was defined as a<10% change from baseline current that was statistically indistinguishable from zero using a two-tailed Student t-test.

[2] = molecular target: T2, GABAA (α1β2γ2s) receptors (UniProt P14867+P18508+P63138); assay: GABAA receptor two-electrode voltage clamp in oocytes at saturated drug concentration; assay type: cell-based, human α1, rat β2 and γ2s; details: saturating aqueous concentration
T2 construct: expressed in transfected cells; host or cells: Xenopus laevis oocytes (intranuclear plasmid injection, α1:β2:γ2 = 1:1:10)
Excerpt: as §1, §2, §3
Oocytes were studied in a 250 μL linear-flow perfusion chamber with solutions administered by syringe pump at 1.5 ml/min with gastight glass syringes and Teflon tubing. Oocyte GABAA currents were studied using standard two-electrode voltage clamping techniques at a holding potential of […] using a 250 μL channel linear-flow perfusion chamber with solutions administered by syringe pump at 1.5 mL/min.
After FR perfusion for 5 min, oocytes were exposed to 30 sec FR-GABA followed by another 5 min FR washout; this was repeated until stable GABAA-elicited peaks were obtained. Next, FR containing a saturated solution of the study drug (Table 2)—or for gaseous study compounds a vapor pressure equal to 90% of barometric pressure with balance oxygen—was used to perfuse the oocyte chamber for 2 min followed by perfusion with a FR-GABA solution containing the identical drug concentration for 30 sec.
as §4

[3] = Loss of righting reflex in Sprague-Dawley rats (inhaled agent); assay type: in vivo
Protocol: 1,1,2,2,3,3,4,5-octafluorocyclopentane (CAS#828-35-3) caused a loss of righting reflex in 4 healthy Sprague-Dawley rats at a concentration of 3.3±0.4 (mean±SD) percent of 1 atmosphere. […] After discontinuing the agent, rats were awake and ambulatory in less than 1 minute. […] Despite a lack of NMDA receptor effects, 1,1,2,2,3,3,4,5-octafluorocyclopentane is able to produce the desired pharmacologic endpoints of unconsciousness and immobility that appears similar to desirable effects produced by conventional agents.

glycine receptors = assay: Glycine receptor modulation in vitro; assay type: cell-based
[4] = test system: inhibitory potassium channels; assay: Inhibitory potassium channel modulation in vitro; assay type: cell-based; details: some inhibitory potassium channels
[5] = Loss of righting reflex in mice (inhaled agent); assay type: in vivo
Protocol: (§5) HFCP caused loss of righting reflex (a surrogate measure of unconsciousness) in 4 healthy ND4 mice at 1.0±0.2 (mean±SD) percent of 1 atmosphere. […] After 2 hours of anesthesia, mice were awake after about 1 minute of discontinuing HFCP administration. […] Despite a lack of NMDA receptor effects, 1,1,2,2,3,3,4-heptafluorocyclopentane is able to produce the desired pharmacologic endpoints of unconsciousness and immobility that appears similar to desirable effects produced by conventional agents.

[6] = aqueous phase; Tadpole; cited from earlier work
[7] = test system: 3-transmembrane (TM3) and 4-transmembrane (TM4) receptors; details: grouped by calculated molar solubility in unbuffered water at 25° C.; cited from earlier work
[8] = Histopathology of heart, lung, kidney and liver tissues after anesthesia; assay type: in vivo, ND4 mice; details: collected 2 days later
Protocol: as §5

Stability in soda lime = assay type: physicochemical
Excerpt: Divalent bases (and sometimes monovalent bases) are used for CO2 absorption in anesthetic circuits; clinically-useful agents must therefore be stable in the presence of strong bases. […] Anesthetics should also be resistant to hydrolysis and redox reactions in vivo. Compounds with ester linkages can be thermally unstable or hydrolysed by plasma and tissue cholinesterases; and those compounds resistant to hydrolysis may likely cause undesirable inhibition of these enzymes (which are essential for metabolism of other drugs). Therefore, compounds with ester linkages are not preferred. Anesthetics with non-aromatic unsaturated carbon linkages have been used historically (fluroxene, isopropenyl vinyl ether, trichloroethylene, vinethylene, ethylene) and shown to undergo extensive metabolism that for some agents was associated with toxicity. Agents containing double or triple carbon bonds are not preferred.

[9] = aqueous phase; Human; cited from earlier work
GABAA receptor = details: 365 μM ketamine; cited from earlier work
[10] = read-out: Aqueous EC50; aqueous phase; Rat; cited from earlier work
NMDA receptor = details: read-out: IC50, inhibition of NMDA receptor currents; cited from earlier work
oocyte = assay: Cytotoxicity during oocyte electrophysiology studies; assay type: cell-based, Xenopus laevis
Excerpt: These compounds are not preferred. Other structures previously known to be highly toxic to animals or humans (such as silanes and boranes) are not preferred.

T1 sequence (Q00959 23-1464, other chains not shown): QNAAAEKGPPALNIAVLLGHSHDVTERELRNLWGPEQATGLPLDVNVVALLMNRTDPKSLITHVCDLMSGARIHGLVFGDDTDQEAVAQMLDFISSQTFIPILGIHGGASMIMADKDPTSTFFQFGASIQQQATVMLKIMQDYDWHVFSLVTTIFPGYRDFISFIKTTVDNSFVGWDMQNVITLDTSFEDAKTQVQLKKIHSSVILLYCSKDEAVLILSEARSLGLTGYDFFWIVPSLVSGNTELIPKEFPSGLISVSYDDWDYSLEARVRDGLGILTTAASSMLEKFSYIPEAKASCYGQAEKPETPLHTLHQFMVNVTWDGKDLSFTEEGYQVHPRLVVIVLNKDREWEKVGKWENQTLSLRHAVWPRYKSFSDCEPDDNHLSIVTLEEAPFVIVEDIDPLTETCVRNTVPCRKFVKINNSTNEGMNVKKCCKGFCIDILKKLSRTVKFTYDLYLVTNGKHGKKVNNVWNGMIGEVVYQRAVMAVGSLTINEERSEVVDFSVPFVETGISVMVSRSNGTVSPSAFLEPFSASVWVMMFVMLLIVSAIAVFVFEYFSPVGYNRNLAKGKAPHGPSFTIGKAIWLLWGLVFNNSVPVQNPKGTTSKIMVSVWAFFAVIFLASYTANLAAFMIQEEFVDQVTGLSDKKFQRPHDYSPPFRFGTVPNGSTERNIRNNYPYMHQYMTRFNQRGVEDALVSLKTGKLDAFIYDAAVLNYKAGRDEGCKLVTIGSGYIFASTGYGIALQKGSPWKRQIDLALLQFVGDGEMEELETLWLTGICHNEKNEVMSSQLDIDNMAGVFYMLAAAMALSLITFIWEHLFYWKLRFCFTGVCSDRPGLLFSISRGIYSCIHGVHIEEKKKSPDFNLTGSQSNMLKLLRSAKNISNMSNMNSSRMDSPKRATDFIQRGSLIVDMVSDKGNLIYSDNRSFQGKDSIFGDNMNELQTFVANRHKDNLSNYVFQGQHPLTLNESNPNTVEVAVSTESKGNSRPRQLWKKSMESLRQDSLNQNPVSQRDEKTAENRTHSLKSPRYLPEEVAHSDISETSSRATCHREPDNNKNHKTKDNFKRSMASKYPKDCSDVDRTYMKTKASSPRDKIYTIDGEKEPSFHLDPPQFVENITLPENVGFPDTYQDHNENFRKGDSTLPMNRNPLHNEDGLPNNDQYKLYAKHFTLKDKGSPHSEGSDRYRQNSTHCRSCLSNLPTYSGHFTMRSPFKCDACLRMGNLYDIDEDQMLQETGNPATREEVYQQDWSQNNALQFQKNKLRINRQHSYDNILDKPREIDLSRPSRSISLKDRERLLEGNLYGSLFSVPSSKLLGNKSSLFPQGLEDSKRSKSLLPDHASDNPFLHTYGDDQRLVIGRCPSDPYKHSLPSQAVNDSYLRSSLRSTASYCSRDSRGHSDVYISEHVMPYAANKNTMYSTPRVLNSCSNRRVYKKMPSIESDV
T2 sequence (P14867 28-456): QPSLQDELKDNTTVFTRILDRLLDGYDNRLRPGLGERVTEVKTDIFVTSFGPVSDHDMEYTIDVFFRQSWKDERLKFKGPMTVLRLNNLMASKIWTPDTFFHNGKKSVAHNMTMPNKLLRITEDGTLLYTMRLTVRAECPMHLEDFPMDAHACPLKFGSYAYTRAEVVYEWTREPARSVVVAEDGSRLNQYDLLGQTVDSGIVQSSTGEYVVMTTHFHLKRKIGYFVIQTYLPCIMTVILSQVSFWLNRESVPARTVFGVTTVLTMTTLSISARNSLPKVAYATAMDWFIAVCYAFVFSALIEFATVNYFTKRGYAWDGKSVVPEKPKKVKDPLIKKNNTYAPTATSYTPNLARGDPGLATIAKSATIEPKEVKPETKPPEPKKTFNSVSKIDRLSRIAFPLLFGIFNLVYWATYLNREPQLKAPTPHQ
T2 sequence (P63138 25-474 limits assumed): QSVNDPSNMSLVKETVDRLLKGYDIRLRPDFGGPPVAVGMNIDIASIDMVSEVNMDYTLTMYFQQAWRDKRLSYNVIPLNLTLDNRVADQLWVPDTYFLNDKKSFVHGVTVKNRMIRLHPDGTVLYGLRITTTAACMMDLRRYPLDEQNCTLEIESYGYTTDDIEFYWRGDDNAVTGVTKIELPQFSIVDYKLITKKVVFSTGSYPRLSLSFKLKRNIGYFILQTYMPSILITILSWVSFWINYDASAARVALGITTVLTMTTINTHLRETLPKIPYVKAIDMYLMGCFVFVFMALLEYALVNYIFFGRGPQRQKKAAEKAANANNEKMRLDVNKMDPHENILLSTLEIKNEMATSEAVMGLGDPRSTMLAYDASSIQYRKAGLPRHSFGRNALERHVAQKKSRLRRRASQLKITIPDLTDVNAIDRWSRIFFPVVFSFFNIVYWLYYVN
T2 sequence (P18508 39-466): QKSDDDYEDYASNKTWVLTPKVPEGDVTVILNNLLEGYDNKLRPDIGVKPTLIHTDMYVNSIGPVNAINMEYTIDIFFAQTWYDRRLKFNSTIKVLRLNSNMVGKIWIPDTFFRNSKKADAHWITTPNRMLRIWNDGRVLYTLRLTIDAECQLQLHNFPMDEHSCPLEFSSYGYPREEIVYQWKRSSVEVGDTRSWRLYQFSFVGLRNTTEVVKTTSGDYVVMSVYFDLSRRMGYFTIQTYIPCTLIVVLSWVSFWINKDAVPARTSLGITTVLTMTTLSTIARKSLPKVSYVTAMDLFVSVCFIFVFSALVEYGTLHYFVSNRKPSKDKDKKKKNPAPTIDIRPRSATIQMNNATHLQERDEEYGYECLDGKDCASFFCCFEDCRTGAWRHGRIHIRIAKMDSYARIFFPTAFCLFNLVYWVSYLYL

FC1C(F)C(F)(F)C(F)(F)C1(F)F (stereo not shown) [1,1,2,2,3,3,4,5-octafluorocyclopentane]
NMDA receptor modulation (in words) [1]: no effect | GABAA receptor modulation (in words) [2]: potentiates | concentration causing loss of righting reflex ([3]; 4 healthy Sprague-Dawley rats, mean±SD, inhaled): 3.3±0.4% of 1 atmosphere | excitement or coughing during anesthetic induction ([3]; rats): without excitement or coughing | time to awake and ambulatory after discontinuing the agent ([3]; rats): less than 1 minute | glycine receptor modulation (in words) (glycine receptors): potentiates | inhibitory potassium channel modulation (in words) [4]: potentiates

FC1C(F)(F)C(F)(F)OC1(F)C(F)(F)F (stereo not shown) [2,2,3,3,4,5-hexafluorotetrahydro-5-(trifluoromethyl)-furan]
concentration causing loss of righting reflex ([5]; mice): 1-10%

ClC(Cl)Cl [Chloroform]
EC50 [6]: 1300 µM

Cc1cccc([C@H](C)c2cnc[nH]2)c1C [Dexmedetomidine]
EC50 [6]: 7 µM

CCOCC [Diethyl ether]
EC50 [6]: 25000 µM | ion channel modulation, TM3 versus TM4 receptors (FIG. 2) [7]: modulate both 3-transmembrane (TM3) and TM4 receptors

CCOC(=O)c1cncn1[C@H](C)c1ccccc1 [Etomidate]
EC50 [6]: 3 µM | ion channel modulation, TM3 versus TM4 receptors (FIG. 2) [7]: modulate 4-transmembrane receptors (TM4) or neither receptor type

FC1CC(F)(F)C(F)(F)C1(F)F (stereo not shown) [HFCP, 1,1,2,2,3,3,4-heptafluorocyclopentane]
NMDA receptor modulation (in words) [1]: no effect | GABAA receptor modulation (in words) [2]: potentiates | concentration causing loss of righting reflex ([5]; 4 healthy ND4 mice, mean±SD, inhaled): 1.0±0.2% of 1 atmosphere | excitement or coughing during anesthetic induction ([5]; mice): no excitement or coughing | time to awake after discontinuing administration ([5]; mice, after 2 hours of anesthesia): about 1 minute | histopathology of heart, lung, kidney and liver tissues [8]: no evidence of inflammation or toxicity | glycine receptor modulation (in words) (glycine receptors): potentiates | inhibitory potassium channel modulation (in words) [4]: potentiates | stability in soda lime (Stability in soda lime): stable in soda lime

FC(F)(F)C(Cl)Br (stereo not shown) [Halothane]
EC50 [6]: 230 µM | ion channel modulation, TM3 versus TM4 receptors (FIG. 2) [7]: modulate both 3-transmembrane (TM3) and TM4 receptors

FC(F)OC(Cl)C(F)(F)F (stereo not shown) [Isoflurane]
EC50 [6]: 290 µM | ion channel modulation, TM3 versus TM4 receptors (FIG. 2) [7]: modulate both 3-transmembrane (TM3) and TM4 receptors

CNC1(c2ccccc2Cl)CCCCC1=O (stereo not shown) [Ketamine]
EC50 [9]: 2 µM | increase of GABAA receptor currents (GABAA receptor): 56% | ion channel modulation, TM3 versus TM4 receptors (FIG. 2) [7]: modulate both 3-transmembrane (TM3) and TM4 receptors

COC(F)(F)C(Cl)Cl [Methoxyflurane]
EC50 [6]: 210 µM | ion channel modulation, TM3 versus TM4 receptors (FIG. 2) [7]: modulate both 3-transmembrane (TM3) and TM4 receptors

FC1(F)OC(F)(F)C(F)(F)C(F)(F)C1(F)F [Perfluorotetrahydropyran]
concentration causing loss of righting reflex ([5]; mice): 1-10%

CC(C)c1cccc(C(C)C)c1O [Propofol]
ion channel modulation, TM3 versus TM4 receptors (FIG. 2) [7]: modulate both 3-transmembrane (TM3) and TM4 receptors | EC50 [10]: 2 µM | IC50 (NMDA receptor): 160 µM

CCCC(C)C1(CC)C(=O)NC(=S)NC1=O (stereo not shown) [Thiopental]
EC50 [9]: 25 µM

C[C@]12N[C@H](Cc3ccccc31)c1ccccc12 [dizocilpine]
ion channel modulation, TM3 versus TM4 receptors (FIG. 2) [7]: modulate both 3-transmembrane (TM3) and TM4 receptors

FC(F)OC(F)(F)C(F)Cl (stereo not shown) [enflurane]
ion channel modulation, TM3 versus TM4 receptors (FIG. 2) [7]: modulate both 3-transmembrane (TM3) and TM4 receptors

CCO [ethanol]
ion channel modulation, TM3 versus TM4 receptors (FIG. 2) [7]: modulate both 3-transmembrane (TM3) and TM4 receptors

Cc1ncc2n1-c1ccc(Cl)cc1C(c1ccccc1F)=NC2 [midazolam]
ion channel modulation, TM3 versus TM4 receptors (FIG. 2) [7]: modulate 4-transmembrane receptors (TM4) or neither receptor type

[N-]=[N+]=O [nitrous oxide]
ion channel modulation, TM3 versus TM4 receptors (FIG. 2) [7]: modulate both 3-transmembrane (TM3) and TM4 receptors

CCCCCCCCC [nonane]
ion channel modulation, TM3 versus TM4 receptors (FIG. 2) [7]: modulate 4-transmembrane receptors (TM4) or neither receptor type

C1CCNC1 [pyrrolidine]
cytotoxicity during oocyte electrophysiology studies (oocyte): cytotoxicity

FCOC(C(F)(F)F)C(F)(F)F [sevoflurane]
ion channel modulation, TM3 versus TM4 receptors (FIG. 2) [7]: modulate both 3-transmembrane (TM3) and TM4 receptors

CCCCCCCCCCCO [undecanol]
ion channel modulation, TM3 versus TM4 receptors (FIG. 2) [7]: modulate 4-transmembrane receptors (TM4) or neither receptor type
